The text below walks through data of patent US20110237670A1, “IMPROVEMENT OF NORMAL COGNITIVE FUNCTION” (priority 2008, published 2011).

The test system of data set [1] is patients with Alzheimer's disease. The following applies: human, in vivo; cited from earlier work.
Another data set has as its system healthy volunteers. The settings on record: human, in vivo; cited from earlier work.
The test system of data set [2] is patients with schizophrenia. The following applies: adjunctive treatment, 6 g/day; cited from earlier work.
For data set [3] the following is noted: in vivo, cited from earlier work.
The next data set has as its system mice. The following applies: pre-attentive information filtering; cited from earlier work.
Data set [4] concerns Male NMRI mice. Briefly: novel object recognition test (learning and memory formation). In kind it is in vivo. On the procedure:
(§1) Male NMRI mice (Charles River, Germany, 25-35 g) were used in examples 1, 2 and 3. The animals were housed nine per cage in a colony room under constant temperature (20±1° C.) and humidity (50±5%). Animals were allowed to acclimatize for at least one week prior to behavioral testing. The daylight cycle was maintained artificially (lights on from 0600 to 1800 hours) and behavioral experiments were conducted during the light phase. The Ethics Committee for Animal Experiments, Goteborg, Sweden, approved all experimental procedures used in the present study.
There are several learning and memory tasks that are appropriate for study in rodents. One widely used is the novel object recognition test. The test involves exposing the rodent to two identical objects for a brief period of time (the introductory session). […] Furthermore, very similar aspects of memory formation (involving encoding, con solidation and retrieval of information) can be assessed in human using the Brief Visual Memory Task-Revised (BVMT-R). […]
The object exploration time was manually scored from the videotapes. […]
Data are expressed as means and standard errors of the mean (S.E.M.). […]
A discrimination index was calculated for each animal: Tn/(Tf+Tn)*100 […]

In data set [5] the test system is Male NMRI mice. As to the kind of experiment: habituation of acoustic startle response (non-associative learning). In kind it is in vivo. The settings on record: acute 1000 mg/kg intraperitoneally, block 6, versus saline, p<0.05, FIG. 2. On the procedure:
as §1
The model used to measure non-associative learning was habituation of acoustic startle response. Habituation refers to the decrease in response to repeated presentation of identical stimuli and the model used for this test is also translational in nature. Since habituation is a measure of how the brain filter outs irrelevant stimuli and focus selectively on important stimuli, it is thought to be a prerequisite for other forms of learning and cognitive functions.
Acoustic startle was recorded using a MOPS 3 startle response recording system (see example 1). […]
The first startle pulse response was omitted from statistical analysis since it was too variable to achieve significance. […] Habituation, the change in mean response amplitude over time, was calculated using the formula: […]

Data set [6] deals with Male NMRI mice. Briefly: prepulse inhibition (PPI) of acoustic startle response model (pre-attentive information processing). The settings on record: for increase in capacity to filter information pre-attentively (absolute change in PPI at day 1 compared to matching test): acute administration, day 1, FIG. 1B; for effect on PPI response: day 1 and day 3, prepulse level 9 dB over background noise. In kind it is in vivo.
Excerpt: One way to elucidate how substances affect our cognitive function is to measure how the brain processes information. Pre-attentive information processing is thought to be important for selective and efficient processing of sensory information and for coherent cognitive operations, and thus for memory and cognitive functions. Pre-attentive information processing can be assessed by using the prepulse inhibition (PPI) of acoustic startle response model. One major advantage of the PPI model is that it is a translational behavior. […] PPI is the reduction in reflex response to an intense stimulus when this stimulus is immediately preceded (30-500 ms) by a weak prestimulus. The presentation of the prestimulus, although not strong enough to elicit a measurable response by itself, evokes a short lasting sensory gating process in the brain, which is manifested by the attenuated response to the successive intense stimulus. PPI is hypothesized to reflect the ability of the central nervous system to filter out distracting and irrelevant stimuli before it reaches the cortex. An increased, i.e. improved, PPI could result in better inhibitory mechanisms that filter or gate intrinsic and extrinsic stimuli prior to higher order processing. […] Furthermore, PPI and other cognitive functions are regulated by the same cortico-striato-pallido-thalamic circuitry and association between these different cognitive domains has been shown.
as §1
Acoustic startle was recorded using a MOPS 3 startle response recording system (Metod och Produkt Svenska AB, Sweden). The animals were placed in small plexi glass cages (10×5.5×6 cm) that were suspended at the top of a piston. A movement of the animal in the cage caused a displacement of the piston, the acceleration of which was registered by a piezo-electric accelerometer. This signal was sampled and digitized by a microcomputer that also controlled the delivery of acoustic stimuli. Startle amplitude was defined as the maximum signal amplitude occurring 8-30 ms after the startle-eliciting stimulus. Four cages were used simultaneously and each cage was housed in a dimly lit and sound attenuated cabinet (52×42×38 cm). The cages were calibrated for equal sensitivity prior to testing and a mouse was always tested in the same cage at subsequent tests. The acoustic stimuli consisted of white noise, which was delivered by two high-frequency loudspeakers built into the ceiling of the cabinet.
Each test session started with an 8-min adaptation period containing only white background noise at 65 dB (A). Startle pulse was set to 105 dB (A) and prepulse intensities to 3, 9 and 12 dB (A) above background noise. Duration of acoustic stimuli was set to 20 ms for both prepulses and startle pulses and interstimulus interval (ISI) was set to 40 ms. Following the adaptation period the animals were subjected to a series of 5 startle pulse-alone trials that were omitted from the analysis since they only served to accommodate the animals to the sudden stimulus onset. The animals were then subjected to a pseudo-randomized combination of 3 prepulse-alone trials for each prepulse intensity, 45 pulse-alone trials and 15 prepulse+pulse trials for each prepulse intensity. Trials were separated by 5-15 s intervals.
All mice were first subjected to a pre-test to ensure that they expressed basal startle reactivity.

In a further data set the test system is humans. The following applies: cited from earlier work.

For `COc1cc2c(cc1OC)C(=O)C(CC1CCN(Cc3ccccc3)CC1)C2` (stereo not shown) [Donezepil], in [1], the “effect on cognition in patients with Alzheimer's disease” value was “enhance cognition”. Also, the “effect on cognition in healthy volunteers” value with healthy volunteers is “no or detrimental effects on cognition”.
Regarding `NCCCC[C@H](N)C(=O)O` [L-lysine], the “effect on symptoms in patients with schizophrenia” value in data set [2] is on record as “possibly can improve some symptoms”. Besides, the oral bioavailability result in data set [3] (po) was “very good oral bioavailability”. Also, the blood-brain barrier penetration entry in [3] is reported as “easily penetrates the blood-brain barrier”. Further, the “effect on cognitive impairments induced by phencyclidine” value in the data set with mice is recorded as “can restore cognitive impairments”. In the data set on Male NMRI mice [4] (1000 mg/kg intraperitoneally 30 min before the introductory session), the “time exploring the two similar objects during the introductory session versus saline” value is given as “no difference”. In addition, in the data set on Male NMRI mice [4] (1000 mg/kg intraperitoneally, 90 min delay, p<0.05, FIG. 3B), the “exploration of the familiar object, recognition session compared with introductory session” value is given as “significantly less exploration of the familiar object”. In addition, the “habituation of the acoustic startle response” value in the data set on Male NMRI mice [5] is “improves the brain capacity to filter out irrelevant information”. Moreover, the “pulse-alone response (acoustic startle; sedative properties)” value with Male NMRI mice [6] (500-2000 mg/kg) is listed as “did not affect the pulse-alone response”. Besides, the “increase in capacity to filter information pre-attentively (absolute change in PPI at day 1 compared to matching test)” value with Male NMRI mice [6] (L-lysine 500 mg/kg intraperitoneally) stood at 28.7%; in the data set on Male NMRI mice [6] (L-lysine 1000 mg/kg intraperitoneally), 51.3%; in the data set on Male NMRI mice [6] (L-lysine 2000 mg/kg intraperitoneally), 9.0%. The “final PPI test at day 9” value with Male NMRI mice [6] (after a 6-day washout period) is listed as “did not demonstrate any significant effects”. Moreover, the “effect on PPI response” value was “improved the PPI response in a dose related manner” in the data set with Male NMRI mice [6] (doses 500 mg/kg and 1000 mg/kg); “did not affect PPI significantly” in the data set on Male NMRI mice [6] (highest dose 2000 mg/kg). The “effect of test day on PPI (day 1 versus day 3, repeated administration)” value with Male NMRI mice [6] (once daily for three days, 500-2000 mg/kg) was “no significant effect of test day”. In addition, in the data set with humans (L-lysine treatment in general), the “reported adverse effects in humans” value is “transient gastrointestinal problems in a few patients”. In the data set on humans (administration up to 2 years), the “adverse effects in long-term studies” value is reported as “have not revealed any adverse effects”. Further, in the data set with humans (doses as high as 40 g/day, resolved as the dose was decreased), the “reported adverse effects in short-term human studies” value is “abdominal cramps and transient diarrhea”.
Consider `CC12CC3CC(C)(C1)CC(N)(C3)C2` [Memantine], for which the “effect on cognition in patients with Alzheimer's disease” value in [1] is reported as “enhance cognition”. For the same molecule, the “effect on cognition in healthy volunteers” value with healthy volunteers is given as “no or detrimental effects on cognition”.
